According to PubChem BioAssay (NCI):
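Test compounds were applied to cells in 96-well plates for 48 hours at 5 doses. TGI denotes the concentration required for complete inhibition of growth.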

Assays:
Test in all cases: NCI tumour cell line growth inhibition, 48 h
UACC-257 melanoma = tested on: UACC-257 melanoma
NCI-H460 lung = tested on: NCI-H460 lung
OVCAR-8 ovarian = tested on: OVCAR-8 ovarian
P388/ADR leukemia = tested on: P388/ADR leukemia
SNB-75 CNS = tested on: SNB-75 CNS
A549 NSCLC = tested on: A549 NSCLC
RPMI-8226 leukemia = tested on: RPMI-8226 leukemia
MCF7 breast = tested on: MCF7 breast
U251 CNS = tested on: U251 CNS
LOX IMVI melanoma = tested on: LOX IMVI melanoma
KM12 colon = tested on: KM12 colon
SK-OV-3 ovarian = tested on: SK-OV-3 ovarian
SN12K1 renal = tested on: SN12K1 renal
OVCAR-3 ovarian = tested on: OVCAR-3 ovarian
MOLT-4 leukemia = tested on: MOLT-4 leukemia
XF 498 CNS = tested on: XF 498 CNS
HCC-2998 colon = tested on: HCC-2998 colon
NCI-H23 lung = tested on: NCI-H23 lung
DMS 273 small cell lung = tested on: DMS 273 small cell lung
HCT-15 colon = tested on: HCT-15 colon
DLD-1 colon = tested on: DLD-1 colon
SNB-19 CNS = tested on: SNB-19 CNS
SNB-78 CNS = tested on: SNB-78 CNS
HOP-62 NSCLC = tested on: HOP-62 NSCLC
A498 renal = tested on: A498 renal
HOP-18 NSCLC = tested on: HOP-18 NSCLC
DMS 114 small cell lung = tested on: DMS 114 small cell lung
UO-31 renal = tested on: UO-31 renal
RXF 393 renal = tested on: RXF 393 renal
NCI-H226 lung = tested on: NCI-H226 lung
CAKI-1 renal = tested on: CAKI-1 renal
SK-MEL-28 melanoma = tested on: SK-MEL-28 melanoma
NCI/ADR-RES ovarian = tested on: NCI/ADR-RES ovarian
M19-MEL melanoma = tested on: M19-MEL melanoma
SW-620 colon = tested on: SW-620 colon
MALME-3M melanoma = tested on: MALME-3M melanoma
HL-60(TB) leukemia = tested on: HL-60(TB) leukemia
HOP-92 NSCLC = tested on: HOP-92 NSCLC
OVCAR-5 ovarian = tested on: OVCAR-5 ovarian
SF-268 CNS = tested on: SF-268 CNS
UACC-62 melanoma = tested on: UACC-62 melanoma
NCI-H522 lung = tested on: NCI-H522 lung
P388 leukemia = tested on: P388 leukemia
SF-295 CNS = tested on: SF-295 CNS
KM20L2 colon = tested on: KM20L2 colon
K-562 leukemia = tested on: K-562 leukemia
SF-539 CNS = tested on: SF-539 CNS
SN12C renal = tested on: SN12C renal
HT29 colon = tested on: HT29 colon
OVCAR-4 ovarian = tested on: OVCAR-4 ovarian
COLO 205 colon = tested on: COLO 205 colon
SK-MEL-5 melanoma = tested on: SK-MEL-5 melanoma
HCT-116 colon = tested on: HCT-116 colon
EKVX NSCLC = tested on: EKVX NSCLC
CCRF-CEM leukemia = tested on: CCRF-CEM leukemia
IGROV1 ovarian = tested on: IGROV1 ovarian
SK-MEL-2 melanoma = tested on: SK-MEL-2 melanoma

CCCNC1=C(C)C(=O)C2=C(C1=O)[C@H](COC(N)=O)[C@]1(OC)[C@@H]3N[C@@H]3CN21
TGI (UACC-257 melanoma): 38.9 µM
TGI (NCI-H460 lung): 4.17 µM
TGI (OVCAR-8 ovarian): 53 µM
TGI (P388/ADR leukemia): 54.7 µM
TGI (SNB-75 CNS): 24.6 µM
TGI (A549 NSCLC): 8.69 µM
TGI (RPMI-8226 leukemia): 73.9 µM
TGI (MCF7 breast): 4.15 µM
TGI (U251 CNS): 40.6 µM
TGI (LOX IMVI melanoma): 19.1 µM
TGI (KM12 colon): 56.1 µM
TGI (SK-OV-3 ovarian): 170 µM
TGI (SN12K1 renal): 44.1 µM
TGI (OVCAR-3 ovarian): 55.3 µM
TGI (MOLT-4 leukemia): 31.3 µM
TGI (XF 498 CNS): 15.3 µM
TGI (HCC-2998 colon): 20.6 µM
TGI (NCI-H23 lung): 12.5 µM
TGI (DMS 273 small cell lung): 15.8 µM
TGI (HCT-15 colon): 72 µM
TGI (DLD-1 colon): 79.9 µM
TGI (SNB-19 CNS): 45.4 µM
TGI (SNB-78 CNS): 158 µM
TGI (HOP-62 NSCLC): 4.42 µM
TGI (A498 renal): 13.6 µM
TGI (HOP-18 NSCLC): 53.4 µM
TGI (DMS 114 small cell lung): 59 µM
TGI (UO-31 renal): 67.3 µM
TGI (RXF 393 renal): 46.4 µM
TGI (NCI-H226 lung): 34 µM
TGI (CAKI-1 renal): 84.5 µM
TGI (SK-MEL-28 melanoma): 87.8 µM
TGI (NCI/ADR-RES ovarian): 300 µM
TGI (M19-MEL melanoma): 27.3 µM
TGI (SW-620 colon): 113 µM
TGI (MALME-3M melanoma): 26.5 µM
TGI (HL-60(TB) leukemia): 19.4 µM
TGI (HOP-92 NSCLC): 43.9 µM
TGI (OVCAR-5 ovarian): 92.4 µM
TGI (SF-268 CNS): 77.9 µM
TGI (UACC-62 melanoma): 5.74 µM
TGI (NCI-H522 lung): 12.5 µM
TGI (P388 leukemia): 39.2 µM
TGI (SF-295 CNS): 39.7 µM
TGI (KM20L2 colon): 121 µM
TGI (K-562 leukemia): 174 µM
TGI (SF-539 CNS): 45.3 µM
TGI (SN12C renal): 69.2 µM
TGI (HT29 colon): 94.3 µM
TGI (OVCAR-4 ovarian): 19.3 µM
TGI (COLO 205 colon): 45 µM
TGI (SK-MEL-5 melanoma): 2650 nM
TGI (HCT-116 colon): 32.2 µM
TGI (EKVX NSCLC): 27.4 µM
TGI (CCRF-CEM leukemia): 185 µM
TGI (IGROV1 ovarian): 33.3 µM
TGI (SK-MEL-2 melanoma): 34.3 µM
